Measured values taken from PubChem BioAssay AID248 (DTP/NCI, 2004).
“And” between values parts separate entries of the source, which are not always exact repeats. Equal entries are not always repeated. Inconclusive results and toxic doses are left out.

Tested on: L1210 leukemia ip in BDF1 mice, survival T/C
Experiment: NCI In Vivo Anticancer Drug Screen. Data for tumor model L1210 Leukemia (intraperitoneal) in B6D2F1 (BDF1) mice
Settings: endpoint: mean survival time, higher = longer survival
How it was run: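 Mice bearing the transplanted tumor received compound or vehicle. Survival of the treated group was divided by that of the vehicle-treated control group to give the ratio.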

Nc1nc2n[nH]nc2c(=O)[nH]1
T/C (dose: 1.25 mg/kg/injection, schedule: Q01DX015 (ip), vehicle: clinical formulation): 109 % of control
T/C (dose: 1.4 mg/kg/injection, schedule: Q01DX Z (ip), vehicle: carboxymethylcellulose (CMC)): 109 % of control
T/C (dose: 2.5 mg/kg/injection, schedule: Q01DX015 (ip), vehicle: clinical formulation): 107 % of control
T/C (dose: 2.8 mg/kg/injection, schedule: Q01DX Z (ip), vehicle: carboxymethylcellulose (CMC)): 109 % of control
T/C (dose: 3.13 mg/kg/injection, schedule: Q01DX010 (ip), vehicle: alkali diluted with saline): 108 % of control and 110 % of control
T/C (dose: 5.0 mg/kg/injection, schedule: Q01DX015 (ip), vehicle: clinical formulation): 107 % of control
T/C (dose: 5.0 mg/kg/injection, schedule: Q01DX Z (oral), vehicle: carboxymethylcellulose (CMC)): 115 % of control
T/C (dose: 5.59 mg/kg/injection, schedule: Q01DX Z (ip), vehicle: carboxymethylcellulose (CMC)): 118 % of control
T/C (dose: 6.25 mg/kg/injection, schedule: Q01DX010 (ip), vehicle: alkali diluted with saline): 122 % of control and 123 % of control
T/C (dose: 7.5 mg/kg/injection, schedule: Q01DX Z (sc), vehicle: carboxymethylcellulose (CMC)): 112 % of control
T/C (dose: 10.0 mg/kg/injection, schedule: Q01DX015 (ip), vehicle: clinical formulation): 117 % of control
T/C (dose: 10.0 mg/kg/injection, schedule: Q01DX Z (oral), vehicle: carboxymethylcellulose (CMC)): 103 % of control
T/C (dose: 12.5 mg/kg/injection, schedule: Q01DX006 (iv), vehicle: water): 104 % of control
T/C (dose: 12.5 mg/kg/injection, schedule: Q01DX Z (im), vehicle: water): 121 % of control
T/C (dose: 12.5 mg/kg/injection, schedule: Q01DX Z (ip), vehicle: other): 97 % of control
T/C (dose: 15.0 mg/kg/injection, schedule: Q01DX Z (sc), vehicle: carboxymethylcellulose (CMC)): 106 % of control
T/C (dose: 20.0 mg/kg/injection, schedule: Q01DX015 (ip), vehicle: water): 101 % of control
T/C (dose: 20.0 mg/kg/injection, schedule: Q01DX Z (oral), vehicle: carboxymethylcellulose (CMC)): 95 % of control
T/C (dose: 22.35 mg/kg/injection, schedule: Q01DX Z (ip), vehicle: carboxymethylcellulose (CMC)): 152 % of control
T/C (dose: 25.0 mg/kg/injection, schedule: Q01DX005 (ip), vehicle: other): 111 % of control
T/C (dose: 25.0 mg/kg/injection, schedule: Q01DX006 (iv), vehicle: water): 113 % of control
T/C (dose: 25.0 mg/kg/injection, schedule: Q01DX009 (ip), vehicle: saline): 154 % of control and 160 % of control
T/C (dose: 25.0 mg/kg/injection, schedule: Q01DX009 (sc), vehicle: carboxymethylcellulose (CMC)): 104 % of control
T/C (dose: 25.0 mg/kg/injection, schedule: Q01DX Z (ip), vehicle: other): 106 % of control
T/C (dose: 30.0 mg/kg/injection, schedule: Q01DX Z (ip), vehicle: other): 121 % of control
T/C (dose: 40.0 mg/kg/injection, schedule: Q01DX009 (ip), vehicle: other): 159 % of control
T/C (dose: 40.0 mg/kg/injection, schedule: Q01DX Z (oral), vehicle: carboxymethylcellulose (CMC)): 109 % of control
T/C (dose: 44.0 mg/kg/injection, schedule: Q01DX015 (ip), vehicle: water): 98 % of control and 115 % of control
T/C (dose: 50.0 mg/kg/injection, schedule: Q01DX001 (ip), vehicle: steriod suspending solution): 117 % of control
T/C (dose: 50.0 mg/kg/injection, schedule: Q01DX005 (ip), vehicle: other): 122 % of control
T/C (dose: 50.0 mg/kg/injection, schedule: Q01DX009 (ip), vehicle: carboxymethylcellulose (CMC)): 159 % of control
T/C (dose: 50.0 mg/kg/injection, schedule: Q01DX009 (ip), vehicle: other): 155 % of control
T/C (dose: 50.0 mg/kg/injection, schedule: Q01DX009 (ip), vehicle: saline): 156 % of control and 158 % of control
T/C (dose: 50.0 mg/kg/injection, schedule: Q01DX Z (im), vehicle: water): 160 % of control
T/C (dose: 50.0 mg/kg/injection, schedule: Q01DX Z (oral), vehicle: other): 93 % of control
T/C (dose: 50.0 mg/kg/injection, schedule: Q01DX Z (oral), vehicle: water): 98 % of control
T/C (dose: 50.0 mg/kg/injection, schedule: Q01DX Z (sc), vehicle: water): 154 % of control
T/C (dose: 60.0 mg/kg/injection, schedule: Q01DX009 (ip), vehicle: other): 152 % of control
T/C (dose: 61.0 mg/kg/injection, schedule: Q01DX015 (ip), vehicle: water): 156 % of control
T/C (dose: 62.0 mg/kg/injection, schedule: Q01DX001 (ip), vehicle: carboxymethylcellulose (CMC)): 121 % of control
T/C (dose: 62.0 mg/kg/injection, schedule: Q01DX001 (sc), vehicle: carboxymethylcellulose (CMC)): 106 % of control
T/C (dose: 64.0 mg/kg/injection, schedule: Q## X024 (ip), vehicle: other): 150 % of control
T/C (dose: 75.0 mg/kg/injection, schedule: Q01DX009 (ip), vehicle: other): 156 % of control
T/C (dose: 75.0 mg/kg/injection, schedule: Q02DX005 (ip), vehicle: carboxymethylcellulose (CMC)): 159 % of control
T/C (dose: 87.0 mg/kg/injection, schedule: Q01DX001 (ip), vehicle: water): 115 % of control and 122 % of control
